# US11196057B2, “Metal-air cell with performance enhancing additive” (ARIZONA BOARD OF REGENTS ACTING FOR AND ON BEHALF OF …, priority 2010, dated 2021)
# Like-named read-outs stand apart in the source and are kept apart here.
# How the values were obtained:
# [1] = pKa values of different proton sources (protic additives); details: for pKa (H20): in water; for pKa: water
# [2] = aqueous system; cited from earlier work
# [3] = Properties of host ionic liquid BDMeIm Tf (gravimetric, Cottrell); assay type: physicochemical
# Procedure: A series of protic additives were added into an ionically conductive medium in order to examine the effects of such additives upon oxygen reduction reaction (“ORR”). An aprotic ionic liquid BdMelm:Tf was used as the host for the additive. A photograph of an experimental setup is provided in FIG. 5A, with FIG. 5B showing a cartoon of a close-up of the measurement tube/chamber. […] See e.g., FIG. 5F. Also, the IL had the benefit of the superacidity of Tf, which minimizes solvent leveling effects. Additional benefits of this dry aprotic IL system include also invariant electrode, high reversibility, and high reactivity, as shown in cyclic voltammagrams (CV) in FIG. 5C and the result of the Kouteeky-Levich ([…]) analysis with respect to the number of electrons per O2 vs. potential in FIG. 5D.
structure (smiles),measurement,setting,value
"Cc1nccn1C.O=S(=O)(O)C(F)(F)F [1,2-dimethylimidaozlium triflate]",pKa (H20),[1],7.4
O.O=S(=O)(O)C(F)(F)F [hydronium triflate],pKa (H20),[1],−1.7
"OCC(F)(F)F [2,2,2-trifluoroethanol]",pKa,[1],12.5
[O]O [superoxide],pKa,[2],about 4.7
"CCCCN=C(N(C)C)N(C)C [2-butyl-1,1,3,3-tetramethylguanidinium triflate]",pKa,[1],13.6
OO [peroxide],pKa,[2],11.63
"CCN(C)CC.O=S(=O)(O)C(F)(F)F [n,n-diethyl-n-methylammonium triflate]",pKa (H20),[1],10.6
CCCCn1cc[n+](C)c1C.O=S(=O)([O-])C(F)(F)F [BDMelm Tf],density,[3],about 1.4 g/mL
same,oxygen solubility,[3]; measured gravimetrically and through Cottrell,about 2.5 mM
